Data taken from patent US9795139B2, “Molecules having pesticidal utility, and intermediates, compositions, and processes, related thereto” (priority 2015, dated 2017).

Assays:
Format in all cases: in vivo
[1] = system: Green Peach Aphid (Myzus persicae, MYZUPE); assay: Bioassay on Green Peach Aphid (GPA), foliar spray on cabbage seedlings; settings: 72 h, 200 ppm foliar spray on cabbage seedlings, three days, Abbott corrected % control, read-out: GPA % Control (or Mortality) rating
Method: Certain molecules disclosed in this document were tested against GPA using procedures described in the following example. In the reporting of the results, the “GPA & YFM Rating Table” was used (See Table Section).
Cabbage seedlings grown in 3-inch pots, with 2-3 small (3-5 cm) true leaves, were used as test substrate. The seedlings were infested with 20-50 GPA (wingless adult and nymph stages) one day prior to chemical application. Four pots with individual seedlings were used for each treatment. Test molecules (2 mg) were dissolved in 2 mL of acetone/methanol (1:1) solvent, forming stock solutions of 1000 ppm test molecule.
The stock solutions were diluted 5× with 0.025% Tween 20 in water to obtain the solution at 200 ppm test molecule. A hand-held aspirator-type sprayer was used for spraying a solution to both sides of […] leaves until runoff. Reference plants (solvent check) were sprayed with the diluent only containing 20% by volume of acetone/methanol (1:1) solvent. Treated plants were held in a holding room for three days at approximately 25° C. and ambient relative humidity (RH) prior to grading. Evaluation was conducted by counting the number of live aphids per plant under a microscope. Percent control was measured using Abbott's correction formula (W. S. Abbott, “A Method of Computing the Effectiveness of an Insecticide” J. Econ. Entomol. 18 (1925), pp. 265-267) as follows. Corrected % Control=100*(X−Y)/X where X=No. of live aphids on solvent check plants and Y=No. of live aphids on treated plants. The results are indicated in the table entitled “Table ABC: Biological Results” (See Table Section).

[2] = system: Yellow Fever Mosquito (Aedes aegypti, AEDSAE); settings: about 1 day-old larvae, 96-well plate from 4000 ppm DMSO master, 3 days at room temperature
How it was run: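 Compound stocks at 4000 ppm in DMSO were diluted with 90:10 water/acetone, and 15 μL aliquots were dispensed into six replicate plates. About 1-day-old larvae in liver-powder water were added per well. Plates were covered and held at room temperature for 3 days before each well was scored for mortality.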

[3] = system: Beet Armyworm (Spodoptera exigua, LAPHEG); assay: Bioassay on Beet Armyworm (BAW), 128-well diet tray assay; settings: 168 h, 50 μg/cm^2 on artificial diet, second instar larvae, 25° C., five to seven days, average of eight wells, read-out: BAW % Control (or Mortality) rating
How it was run: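 Artificial diet surface-treated with 50 μg/cm^2 test molecule in 90:10 acetone-water, dried, then infested with one to five second instar larvae per well. Held covered and vented at 25° C., 14:10 light-dark for five to seven days; percent mortality recorded per well and averaged over eight wells.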

[4] = system: Cabbage Looper (Trichoplusia ni, TRIPNI); assay: Bioassay on Cabbage Looper (CL), 128-well diet tray assay; settings: 168 h, 50 μg/cm^2 on artificial diet, second instar larvae, 25° C., five to seven days, average of eight wells, read-out: CL % Control (or Mortality) rating
How it was run: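 Second-instar larvae, one to five per well, were placed on artificial diet surface-treated with 50 μg/cm^2 test molecule applied in 90:10 acetone-water and dried, eight wells per molecule. Trays were covered, vented and held at 25° C., 14:10 light-dark for five to seven days; percent mortality per well was averaged.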

Q: Which results are given for N#CC1(NC(=O)c2cc(NC(=O)[C@H]3[C@H](c4ccc(Cl)c(Cl)c4)C3(Cl)Cl)ccc2Cl)CC1 (relative stereo) [Molecule F11, trans-2-Chloro-N-(1-cyanocyclopropyl)-5-(2,2-dichloro-3-(3,4-dichlorophenyl)cyclopropanecarboxamido)benzamide]?
A: mortality at 200 ppm [1]: 80 to 100%; YFM % Control (or Mortality) rating [2]: A (80-100); mortality at 50 µg/cm2 [3]: 50 to 100%; mortality at 50 µg/cm2 [4]: 50 to 100%

Q: Which results are given for CN(C(=O)c1cc(NC(=O)[C@H]2[C@H](c3cc(Cl)cc(Cl)c3)C2(Cl)Cl)ccc1Cl)C1CC(F)(F)C1 (relative stereo) [Molecule F32, trans-2-Chloro-5-(2,2-dichloro-3-(3,5-dichlorophenyl)cyclopropanecarboxamido)-N-(3,3-difluorocyclobutyl)-N-methylbenzamide]?
A: mortality at 200 ppm [1]: 80 to 100%; YFM % Control (or Mortality) rating [2]: A (80-100); mortality at 50 µg/cm2 [3]: 50 to 100%; mortality at 50 µg/cm2 [4]: 50 to 100%

Q: Which results are given for N#CC1(NC(=O)c2cc(NC(=O)C3C(c4ccc(Cl)c(Cl)c4)C3(Cl)Cl)ccc2Cl)CCC1 (stereo not drawn) [Molecule F14, trans-2-Chloro-N-(l-cyanocyclobutyl)-5-(2,2-dichloro-3-(3,4-dichlorophenyl)cyclopropanecarboxamido)benzamide]?
A: mortality at 200 ppm [1]: 0 to 80%; YFM % Control (or Mortality) rating [2]: A (80-100); mortality at 50 µg/cm2 [3]: 50 to 100%; mortality at 50 µg/cm2 [4]: 50 to 100%

Q: For O=C(NC1CC(F)(F)C1)c1cc(NC(=O)[C@H]2[C@H](c3cc(Cl)cc(Cl)c3)C2(Cl)Br)ccc1Cl (relative stereo) [Molecule F71, trans-5-(2-Bromo-2-chloro-3-(3,5-dichlorophenyl)cyclopropane-1-carboxamido)-2-chloro-N-(3,3-difluorocyclobutyl)benzamide], which mortality at 200 ppm [1] is on record?
A: 80 to 100%

Q: And the “YFM % Control (or Mortality) rating” value [2]?
A: B (More than 0-Less than 80)

Q: What about the mortality at 50 µg/cm2 [3] of the same compound?
A: 50 to 100%

Q: And the mortality at 50 µg/cm2 [4]?
A: 50 to 100%

Q: Which results are given for CN(C(=O)c1cc(NC(=O)[C@H]2[C@H](c3cc(Cl)c(Cl)c(Cl)c3)C2(Cl)Cl)ccc1Cl)C1CC(F)(F)C1 (relative stereo) [Molecule F34, trans-2-Chloro-5-(2,2-dichloro-3-(3,4,5-trichlorophenyl)cyclopropanecarboxamido)-N-(3,3-difluorocyclobutyl)-N-methylbenzamide]?
A: mortality at 200 ppm [1]: 0 to 80%; YFM % Control (or Mortality) rating [2]: A (80-100); mortality at 50 µg/cm2 [3]: 50 to 100%; mortality at 50 µg/cm2 [4]: 50 to 100%

Q: With O=C(NC1CC(F)(F)C1)c1cc(NC(=O)[C@H]2[C@H](c3ccc(OC(F)(F)F)c(Cl)c3)C2(Cl)Cl)ccc1Cl (relative stereo) [Molecule F21, trans-2-Chloro-5-(2,2-dichloro-3-(3-chloro-4-(trifluoromethoxy)phenyl)cyclopropanecarboxamido)-N-(3,3-difluorocyclobutyl)benzamide] as the compound, how does the mortality at 200 ppm [1] read?
A: 80 to 100%

Q: What about the “YFM % Control (or Mortality) rating” value [2] of the same compound?
A: A (80-100)

Q: What about the mortality at 50 µg/cm2 [3] of the same compound?
A: 50 to 100%

Q: And the mortality at 50 µg/cm2 [4]?
A: 50 to 100%

Q: What does the source list for N#CC1(NC(=O)c2cc(NC(=O)[C@H]3[C@H](c4cc(Cl)c(Cl)c(Cl)c4)C3(Cl)Cl)ccc2Cl)CC1 (relative stereo) [Molecule F10, trans-2-Chloro-N-(1-cyanocyclopropyl)-5-(2,2-dichloro-3-(3,4,5-trichlorophenyl)cyclopropanecarboxamido)benzamide]?
A: mortality at 200 ppm [1]: 80 to 100%; YFM % Control (or Mortality) rating [2]: A (80-100); mortality at 50 µg/cm2 [3]: 50 to 100%; mortality at 50 µg/cm2 [4]: 50 to 100%

Q: For N#CC1(NC(=O)c2cc(NC(=O)[C@H]3[C@H](c4cccc(C(F)(F)F)c4)C3(Cl)Cl)ccc2Cl)CC1 (relative stereo) [Molecule F18, trans-2-Chloro-N-(1-cyanocyclopropyl)-5-(2,2-dichloro-3-(3-(trifluoromethyl)phenyl)cyclopropanecarboxamido)benzamide], which mortality at 200 ppm [1] is on record?
A: 80 to 100%

Q: What about the “YFM % Control (or Mortality) rating” value [2] of the same compound?
A: B (More than 0-Less than 80)

Q: What about the mortality at 50 µg/cm2 [3] of the same compound?
A: 50 to 100%

Q: What about the mortality at 50 µg/cm2 [4] of the same compound?
A: 50 to 100%

Q: For O=C(NC1CCSC1)c1cc(NC(=O)[C@H]2[C@H](c3cc(Cl)c(Cl)c(Cl)c3)C2(Cl)Cl)ccc1Cl (relative stereo) [Molecule F8, trans-2-chloro-5-(2,2-dichloro-3-(3,4,5-trichlorophenyl)cyclopropanecarboxamido)-N-(tetrahydrothiophen-3-yl)benzamide], which mortality at 200 ppm [1] is on record?
A: 0%

Q: What about the “YFM % Control (or Mortality) rating” value [2] of the same compound?
A: A (80-100)

Q: And the mortality at 50 µg/cm2 [3]?
A: 50 to 100%

Q: What about the mortality at 50 µg/cm2 [4] of the same compound?
A: 50 to 100%

Q: Cc1cc([C@H]2[C@H](C(=O)Nc3ccc(Cl)c(C(=O)NC4CC(F)(F)C4)c3)C2(Cl)Cl)cc(Cl)c1Cl (relative stereo) [Molecule F50, trans-2-Chloro-5-(2,2-dichloro-3-(3,4-dichloro-5-methylphenyl)cyclopropanecarboxamido)-N-(3,3-difluorocyclobutyl)benzamide] was tested. Which mortality at 200 ppm [1] did it give?
A: 0 to 80%

Q: What about the “YFM % Control (or Mortality) rating” value [2] of the same compound?
A: D (No activity noticed in this bioassay)

Q: What about the mortality at 50 µg/cm2 [3] of the same compound?
A: 50 to 100%

Q: And the mortality at 50 µg/cm2 [4]?
A: 50 to 100%

Q: For O=C(NC1CCOCC1)c1cc(NC(=O)[C@H]2[C@H](c3cc(Cl)cc(Cl)c3)C2(Cl)Cl)ccc1Cl (relative stereo) [Molecule F55, trans-2-chloro-5-(2,2-dichloro-3-(3,5-dichlorophenyl)cyclopropanecarboxamido)-N-(tetrahydro-2H-pyran-4-yl)benzamide], which mortality at 200 ppm [1] is on record?
A: 80 to 100%

Q: What about the mortality at 50 µg/cm2 [3] of the same compound?
A: 50 to 100%

Q: What about the mortality at 50 µg/cm2 [4] of the same compound?
A: 50 to 100%

Q: With N#CC1(NC(=O)c2cc(NC(=O)[C@H]3[C@H](c4cc(Cl)cc(Cl)c4)C3(Cl)Cl)ccc2Cl)CCC1 (relative stereo) [Molecule F12, trans-2-Chloro-N-(1-cyanocyclobutyl)-5-(2,2-dichloro-3-(3,5-dichlorophenyl)cyclopropanecarboxamido)benzamide] as the compound, how does the mortality at 200 ppm [1] read?
A: 0 to 80%

Q: What about the “YFM % Control (or Mortality) rating” value [2] of the same compound?
A: A (80-100)

Q: And the mortality at 50 µg/cm2 [3]?
A: 50 to 100%

Q: What about the mortality at 50 µg/cm2 [4] of the same compound?
A: 50 to 100%

Q: What does the source list for O=C(NC1CC(F)(F)C1)c1cc(NC(=O)[C@H]2[C@H](c3cc(Cl)cc(Br)c3)C2(Cl)Cl)ccc1Cl (relative stereo) [PF8, trans-5-(3-(3-Bromo-5-chlorophenyl)-2,2-dichlorocyclopropane-1-carboxamido)-2-chloro-N-(3,3-difluorocyclobutyl)benzamide]?
A: mortality at 200 ppm [1]: 80 to 100%; YFM % Control (or Mortality) rating [2]: D (No activity noticed in this bioassay); mortality at 50 µg/cm2 [3]: 50 to 100%; mortality at 50 µg/cm2 [4]: 50 to 100%

Q: Which results are given for O=C(NC1CC(F)(F)C1)c1cc(NC(=O)[C@H]2[C@H](c3ccc(Cl)c(Cl)c3)C2(Cl)Cl)ccc1Cl (relative stereo) [Molecule F9, trans-2-Chloro-5-(2,2-dichloro-3-(3,4-dichlorophenyl)cyclopropanecarboxamido)-N-(3,3-difluorocyclobutyl)benzamide]?
A: mortality at 200 ppm [1]: 80 to 100%; YFM % Control (or Mortality) rating [2]: A (80-100); mortality at 50 µg/cm2 [3]: 50 to 100%; mortality at 50 µg/cm2 [4]: 50 to 100%

Q: What does the source list for O=C(NC1CC1)c1cccc(NC(=O)[C@H]2[C@H](c3cc(Cl)cc(Cl)c3)C2(Cl)Cl)c1 (relative stereo) [Molecule F3, trans-N-Cyclopropyl-3-(2,2-dichloro-3-(3,5-dichlorophenyl)cyclopropanecarboxamido)benzamide]?
A: mortality at 200 ppm [1]: 0 to 80%; YFM % Control (or Mortality) rating [2]: A (80-100); mortality at 50 µg/cm2 [3]: 50 to 100%; mortality at 50 µg/cm2 [4]: 50 to 100%

Q: With O=C(NC1CSC1)c1cc(NC(=O)[C@H]2[C@H](c3cc(Cl)cc(Cl)c3)C2(Cl)Cl)ccc1Cl (relative stereo) [Molecule F15, trans-2-Chloro-5-(2,2-dichloro-3-(3,5-dichlorophenyl)cyclopropanecarboxamido)-N-(thietan-3-yl)benzamide] as the compound, how does the mortality at 200 ppm [1] read?
A: 80 to 100%

Q: What about the “YFM % Control (or Mortality) rating” value [2] of the same compound?
A: A (80-100)

Q: And the mortality at 50 µg/cm2 [3]?
A: 50 to 100%

Q: What about the mortality at 50 µg/cm2 [4] of the same compound?
A: 50 to 100%

Q: For O=C(NC1CC(F)(F)C1)c1cc(NC(=O)[C@H]2[C@H](c3ccc(F)c(Cl)c3)C2(Cl)Cl)ccc1Cl (relative stereo) [PF7, trans-2-Chloro-5-(2,2-dichloro-3-(3-chloro-4-fluorophenyl)cyclopropane-1-carboxamido)-N-(3,3-difluorocyclobutyl)benzamide], which mortality at 200 ppm [1] is on record?
A: 80 to 100%

Q: And the “YFM % Control (or Mortality) rating” value [2]?
A: D (No activity noticed in this bioassay)

Q: And the mortality at 50 µg/cm2 [3]?
A: 50 to 100%

Q: And the mortality at 50 µg/cm2 [4]?
A: 50 to 100%
